# System: Abutilon theophrasti
# Experiment: Pre-emergence herbicidal activity, glasshouse pot test
# Type: in vivo
# Settings: pre-emergence spray, rate 1000 g/ha, evaluated after 13 days, scale 0-5
# In short: (§1)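 Seeds sown in standard soil were sprayed one day after sowing, before emergence, with compound formulated in acetone/water (50:50) plus 0.5% Tween 20. Plants were grown at 24/16 °C day/night, 14 h light, 65% humidity, watered twice daily, and damage was scored after 13 days (0 = none, 5 = total).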
row,SMILES,"ABUTH damage score, application pre-emergence"
1,COC1=C(C)C(O)N(c2cc(C(C)C)c(Cl)nn2)C1=O (stereo not drawn) [BI2],4
2,COC1=C(C)C(O)N(c2cc3c(nn2)CCCC3)C1=O (stereo not drawn) [BI3],0
3,CCOC(=O)c1ccc(N2C(=O)C(OC)=C(C)C2O)nn1 (stereo not drawn) [BI4],0
4,COC1=C(C)C(O)N(c2cc(C)c(C#N)nn2)C1=O (stereo not drawn) [BI5],0
5,COC1=C(C)C(O)N(c2ccc(C(=O)NC(C)(C)C)nn2)C1=O (stereo not drawn) [BI6],5
6,COC1=C(C)C(O)N(c2ccc(C(=O)NC(C)(C)C#N)nn2)C1=O (stereo not drawn) [BI7],4
7,COC1=C(C)C(O)N(c2cc(C(F)(F)F)c(Cl)nn2)C1=O (stereo not drawn) [BI9],1
8,COC1=C(C)C(O)N(c2cc(C(C)F)c(Cl)nn2)C1=O (stereo not drawn) [BI10],5

# System: Alopecurus myosuroides
# Experiment: as above
# Type: in vivo
# Settings: pre-emergence spray, rate 1000 g/ha, evaluated after 13 days, scale 0-5
# In short: as §1
row,SMILES,"ALOMY damage score, application pre-emergence"
1,COC1=C(C)C(O)N(c2cc(C(C)C)c(Cl)nn2)C1=O (stereo not drawn) [BI2],4
2,COC1=C(C)C(O)N(c2cc3c(nn2)CCCC3)C1=O (stereo not drawn) [BI3],1
3,CCOC(=O)c1ccc(N2C(=O)C(OC)=C(C)C2O)nn1 (stereo not drawn) [BI4],0
4,COC1=C(C)C(O)N(c2cc(C)c(C#N)nn2)C1=O (stereo not drawn) [BI5],0
5,COC1=C(C)C(O)N(c2ccc(C(=O)NC(C)(C)C)nn2)C1=O (stereo not drawn) [BI6],4
6,COC1=C(C)C(O)N(c2ccc(C(=O)NC(C)(C)C#N)nn2)C1=O (stereo not drawn) [BI7],3
7,COC1=C(C)C(O)N(c2cc(C(F)(F)F)c(Cl)nn2)C1=O (stereo not drawn) [BI9],4
8,COC1=C(C)C(O)N(c2cc(C(C)F)c(Cl)nn2)C1=O (stereo not drawn) [BI10],3

# System: Amaranthus retroflexus
# Experiment: as above
# Type: in vivo
# Settings: pre-emergence spray, rate 1000 g/ha, evaluated after 13 days, scale 0-5
# In short: as §1
row,SMILES,"AMARE damage score, application pre-emergence"
1,COC1=C(C)C(O)N(c2cc(C(C)C)c(Cl)nn2)C1=O (stereo not drawn) [BI2],4
2,COC1=C(C)C(O)N(c2cc3c(nn2)CCCC3)C1=O (stereo not drawn) [BI3],2
3,CCOC(=O)c1ccc(N2C(=O)C(OC)=C(C)C2O)nn1 (stereo not drawn) [BI4],0
4,COC1=C(C)C(O)N(c2cc(C)c(C#N)nn2)C1=O (stereo not drawn) [BI5],0
5,COC1=C(C)C(O)N(c2ccc(C(=O)NC(C)(C)C)nn2)C1=O (stereo not drawn) [BI6],5
6,COC1=C(C)C(O)N(c2ccc(C(=O)NC(C)(C)C#N)nn2)C1=O (stereo not drawn) [BI7],5
7,COC1=C(C)C(O)N(c2cc(C(F)(F)F)c(Cl)nn2)C1=O (stereo not drawn) [BI9],5
8,COC1=C(C)C(O)N(c2cc(C(C)F)c(Cl)nn2)C1=O (stereo not drawn) [BI10],5

# System: Echinochloa crus-galli
# Experiment: as above
# Type: in vivo
# Settings: pre-emergence spray, rate 1000 g/ha, evaluated after 13 days, scale 0-5
# In short: as §1
row,SMILES,"ECHCG damage score, application pre-emergence"
1,COC1=C(C)C(O)N(c2cc(C(C)C)c(Cl)nn2)C1=O (stereo not drawn) [BI2],5
2,COC1=C(C)C(O)N(c2cc3c(nn2)CCCC3)C1=O (stereo not drawn) [BI3],4
3,CCOC(=O)c1ccc(N2C(=O)C(OC)=C(C)C2O)nn1 (stereo not drawn) [BI4],0
4,COC1=C(C)C(O)N(c2cc(C)c(C#N)nn2)C1=O (stereo not drawn) [BI5],0
5,COC1=C(C)C(O)N(c2ccc(C(=O)NC(C)(C)C)nn2)C1=O (stereo not drawn) [BI6],4
6,COC1=C(C)C(O)N(c2ccc(C(=O)NC(C)(C)C#N)nn2)C1=O (stereo not drawn) [BI7],3
7,COC1=C(C)C(O)N(c2cc(C(F)(F)F)c(Cl)nn2)C1=O (stereo not drawn) [BI9],4
8,COC1=C(C)C(O)N(c2cc(C(C)F)c(Cl)nn2)C1=O (stereo not drawn) [BI10],4

# System: Setaria faberi
# Experiment: as above
# Type: in vivo
# Settings: pre-emergence spray, rate 1000 g/ha, evaluated after 13 days, scale 0-5
# In short: as §1
row,SMILES,"SETFA damage score, application pre-emergence"
1,COC1=C(C)C(O)N(c2cc(C(C)C)c(Cl)nn2)C1=O (stereo not drawn) [BI2],5
2,COC1=C(C)C(O)N(c2cc3c(nn2)CCCC3)C1=O (stereo not drawn) [BI3],0
3,CCOC(=O)c1ccc(N2C(=O)C(OC)=C(C)C2O)nn1 (stereo not drawn) [BI4],0
4,COC1=C(C)C(O)N(c2cc(C)c(C#N)nn2)C1=O (stereo not drawn) [BI5],0
5,COC1=C(C)C(O)N(c2ccc(C(=O)NC(C)(C)C)nn2)C1=O (stereo not drawn) [BI6],5
6,COC1=C(C)C(O)N(c2ccc(C(=O)NC(C)(C)C#N)nn2)C1=O (stereo not drawn) [BI7],4
7,COC1=C(C)C(O)N(c2cc(C(F)(F)F)c(Cl)nn2)C1=O (stereo not drawn) [BI9],2
8,COC1=C(C)C(O)N(c2cc(C(C)F)c(Cl)nn2)C1=O (stereo not drawn) [BI10],2

# System: zea mays
# Experiment: as above
# Type: in vivo
# Settings: pre-emergence spray, rate 1000 g/ha, evaluated after 13 days, scale 0-5
# In short: as §1
row,SMILES,"ZEAMX damage score, application pre-emergence"
1,COC1=C(C)C(O)N(c2cc(C(C)C)c(Cl)nn2)C1=O (stereo not drawn) [BI2],3
2,COC1=C(C)C(O)N(c2cc3c(nn2)CCCC3)C1=O (stereo not drawn) [BI3],0
3,CCOC(=O)c1ccc(N2C(=O)C(OC)=C(C)C2O)nn1 (stereo not drawn) [BI4],0
4,COC1=C(C)C(O)N(c2cc(C)c(C#N)nn2)C1=O (stereo not drawn) [BI5],0
5,COC1=C(C)C(O)N(c2ccc(C(=O)NC(C)(C)C)nn2)C1=O (stereo not drawn) [BI6],2
6,COC1=C(C)C(O)N(c2ccc(C(=O)NC(C)(C)C#N)nn2)C1=O (stereo not drawn) [BI7],1
7,COC1=C(C)C(O)N(c2cc(C(F)(F)F)c(Cl)nn2)C1=O (stereo not drawn) [BI9],2
8,COC1=C(C)C(O)N(c2cc(C(C)F)c(Cl)nn2)C1=O (stereo not drawn) [BI10],2

# System: Abutilon theophrasti
# Experiment: Post-emergence herbicidal activity, glasshouse pot test
# Type: in vivo
# Set-up: key: 0 = no damage to plant, 5 = total damage to plant
# Settings: Application post-emergence, rate 1000 g/ha, evaluated after 13 days
# In short: (§2)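 After 8 days of glasshouse growth at 24/16 °C day/night, potted plants receive a foliar spray of the formulated compound (0.5% Tween 20 in acetone/water). They are then watered twice daily under unchanged conditions, and phytotoxicity is scored 0–5 after 13 days.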
row,SMILES,ABUTH herbicidal damage score
1,COC1=C(C)C(O)N(c2cc(C(C)C)c(Cl)nn2)C1=O (stereo not drawn) [BI2],5
2,COC1=C(C)C(O)N(c2cc3c(nn2)CCCC3)C1=O (stereo not drawn) [BI3],2
3,CCOC(=O)c1ccc(N2C(=O)C(OC)=C(C)C2O)nn1 (stereo not drawn) [BI4],0
4,COC1=C(C)C(O)N(c2cc(C)c(C#N)nn2)C1=O (stereo not drawn) [BI5],0
5,COC1=C(C)C(O)N(c2ccc(C(=O)NC(C)(C)C)nn2)C1=O (stereo not drawn) [BI6],5
6,COC1=C(C)C(O)N(c2ccc(C(=O)NC(C)(C)C#N)nn2)C1=O (stereo not drawn) [BI7],4
7,COC1=C(C)C(O)N(c2cc(C(F)(F)F)c(Cl)nn2)C1=O (stereo not drawn) [BI9],5
8,COC1=C(C)C(O)N(c2cc(C(C)F)c(Cl)nn2)C1=O (stereo not drawn) [BI10],5

# System: Alopecurus myosuroides
# Experiment: as above
# Type: in vivo
# Set-up: key: 0 = no damage to plant, 5 = total damage to plant
# Settings: Application post-emergence, rate 1000 g/ha, evaluated after 13 days
# In short: as §2
row,SMILES,ALOMY herbicidal damage score
1,COC1=C(C)C(O)N(c2cc(C(C)C)c(Cl)nn2)C1=O (stereo not drawn) [BI2],5
2,COC1=C(C)C(O)N(c2cc3c(nn2)CCCC3)C1=O (stereo not drawn) [BI3],3
3,CCOC(=O)c1ccc(N2C(=O)C(OC)=C(C)C2O)nn1 (stereo not drawn) [BI4],0
4,COC1=C(C)C(O)N(c2cc(C)c(C#N)nn2)C1=O (stereo not drawn) [BI5],0
5,COC1=C(C)C(O)N(c2ccc(C(=O)NC(C)(C)C)nn2)C1=O (stereo not drawn) [BI6],4
6,COC1=C(C)C(O)N(c2ccc(C(=O)NC(C)(C)C#N)nn2)C1=O (stereo not drawn) [BI7],4
7,COC1=C(C)C(O)N(c2cc(C(F)(F)F)c(Cl)nn2)C1=O (stereo not drawn) [BI9],5
8,COC1=C(C)C(O)N(c2cc(C(C)F)c(Cl)nn2)C1=O (stereo not drawn) [BI10],4

# System: Amaranthus retroflexus
# Experiment: as above
# Type: in vivo
# Set-up: key: 0 = no damage to plant, 5 = total damage to plant
# Settings: Application post-emergence, rate 1000 g/ha, evaluated after 13 days
# In short: as §2
row,SMILES,AMARE herbicidal damage score
1,COC1=C(C)C(O)N(c2cc(C(C)C)c(Cl)nn2)C1=O (stereo not drawn) [BI2],5
2,COC1=C(C)C(O)N(c2cc3c(nn2)CCCC3)C1=O (stereo not drawn) [BI3],3
3,CCOC(=O)c1ccc(N2C(=O)C(OC)=C(C)C2O)nn1 (stereo not drawn) [BI4],0
4,COC1=C(C)C(O)N(c2cc(C)c(C#N)nn2)C1=O (stereo not drawn) [BI5],0
5,COC1=C(C)C(O)N(c2ccc(C(=O)NC(C)(C)C)nn2)C1=O (stereo not drawn) [BI6],5
6,COC1=C(C)C(O)N(c2ccc(C(=O)NC(C)(C)C#N)nn2)C1=O (stereo not drawn) [BI7],5
7,COC1=C(C)C(O)N(c2cc(C(F)(F)F)c(Cl)nn2)C1=O (stereo not drawn) [BI9],5
8,COC1=C(C)C(O)N(c2cc(C(C)F)c(Cl)nn2)C1=O (stereo not drawn) [BI10],5

# System: Echinochloa crus-galli
# Experiment: as above
# Type: in vivo
# Set-up: key: 0 = no damage to plant, 5 = total damage to plant
# Settings: Application post-emergence, rate 1000 g/ha, evaluated after 13 days
# In short: as §2
row,SMILES,ECHCG herbicidal damage score
1,COC1=C(C)C(O)N(c2cc(C(C)C)c(Cl)nn2)C1=O (stereo not drawn) [BI2],5
2,COC1=C(C)C(O)N(c2cc3c(nn2)CCCC3)C1=O (stereo not drawn) [BI3],3
3,CCOC(=O)c1ccc(N2C(=O)C(OC)=C(C)C2O)nn1 (stereo not drawn) [BI4],0
4,COC1=C(C)C(O)N(c2cc(C)c(C#N)nn2)C1=O (stereo not drawn) [BI5],0
5,COC1=C(C)C(O)N(c2ccc(C(=O)NC(C)(C)C)nn2)C1=O (stereo not drawn) [BI6],5
6,COC1=C(C)C(O)N(c2ccc(C(=O)NC(C)(C)C#N)nn2)C1=O (stereo not drawn) [BI7],4
7,COC1=C(C)C(O)N(c2cc(C(F)(F)F)c(Cl)nn2)C1=O (stereo not drawn) [BI9],5
8,COC1=C(C)C(O)N(c2cc(C(C)F)c(Cl)nn2)C1=O (stereo not drawn) [BI10],5

# System: Setaria faberi
# Experiment: as above
# Type: in vivo
# Set-up: key: 0 = no damage to plant, 5 = total damage to plant
# Settings: Application post-emergence, rate 1000 g/ha, evaluated after 13 days
# In short: as §2
row,SMILES,SETFA herbicidal damage score
1,COC1=C(C)C(O)N(c2cc(C(C)C)c(Cl)nn2)C1=O (stereo not drawn) [BI2],5
2,COC1=C(C)C(O)N(c2cc3c(nn2)CCCC3)C1=O (stereo not drawn) [BI3],5
3,CCOC(=O)c1ccc(N2C(=O)C(OC)=C(C)C2O)nn1 (stereo not drawn) [BI4],0
4,COC1=C(C)C(O)N(c2cc(C)c(C#N)nn2)C1=O (stereo not drawn) [BI5],0
5,COC1=C(C)C(O)N(c2ccc(C(=O)NC(C)(C)C)nn2)C1=O (stereo not drawn) [BI6],5
6,COC1=C(C)C(O)N(c2ccc(C(=O)NC(C)(C)C#N)nn2)C1=O (stereo not drawn) [BI7],5
7,COC1=C(C)C(O)N(c2cc(C(F)(F)F)c(Cl)nn2)C1=O (stereo not drawn) [BI9],5
8,COC1=C(C)C(O)N(c2cc(C(C)F)c(Cl)nn2)C1=O (stereo not drawn) [BI10],5

# System: zea mays
# Experiment: as above
# Type: in vivo
# Set-up: key: 0 = no damage to plant, 5 = total damage to plant
# Settings: Application post-emergence, rate 1000 g/ha, evaluated after 13 days
# In short: as §2
row,SMILES,ZEAMX herbicidal damage score
1,COC1=C(C)C(O)N(c2cc(C(C)C)c(Cl)nn2)C1=O (stereo not drawn) [BI2],3
2,COC1=C(C)C(O)N(c2cc3c(nn2)CCCC3)C1=O (stereo not drawn) [BI3],1
3,CCOC(=O)c1ccc(N2C(=O)C(OC)=C(C)C2O)nn1 (stereo not drawn) [BI4],0
4,COC1=C(C)C(O)N(c2cc(C)c(C#N)nn2)C1=O (stereo not drawn) [BI5],0
5,COC1=C(C)C(O)N(c2ccc(C(=O)NC(C)(C)C)nn2)C1=O (stereo not drawn) [BI6],4
6,COC1=C(C)C(O)N(c2ccc(C(=O)NC(C)(C)C#N)nn2)C1=O (stereo not drawn) [BI7],2
7,COC1=C(C)C(O)N(c2cc(C(F)(F)F)c(Cl)nn2)C1=O (stereo not drawn) [BI9],4
8,COC1=C(C)C(O)N(c2cc(C(C)F)c(Cl)nn2)C1=O (stereo not drawn) [BI10],3

# From patent publication US9963445B2, “Chemical compounds” (SYNGENTA PARTICIPATIONS AG, priority 2013, dated 2018)
